Reference: patent US6258845A (priority 1999, dated 2001)
“And” between values parts separate entries of the source, which are not always exact repeats. Identical values can stand only once. “Also recorded” adds a separate entry of the source.

Experiments:
[1] = in vivo; cited from earlier work
[2] = system: AOM-treated rat model of colon carcinogenesis; details: in vivo; cited from earlier work
[3] = system: colon mucosal prostaglandins; details: cited from earlier work
colon cancer incidence = details: cited from earlier work
COX (cyclooxygenase) = details: cited from earlier work
[4] = system: carcinogenesis in rodent/animal models; details: in vivo; cited from earlier work
[5] = system: prostaglandin E2 (PGE2) levels in flat mucosa; assay: Ibuprofen one month trial, PGE2 levels in flat mucosa; details: 300 mg/day
[6] = system: tumors harboring Ki-ras mutations in AOM-treated rats; details: cited from earlier work
[7] = cited from earlier work
[8] = system: Caco-2 parental cells, Ki-ras clone #60 and Ki-ras clone #66; assay: Viable cell number (trypan blue dye exclusion), growth of Caco-2 parental and Ki-ras transfected cells; type: cell-based, human
Caco-2 parental cells = assay: Induction of apoptosis (light microscopy) in Caco-2 parental cells; type: cell-based, human; details: 120 μM sulindac sulfide; Caco-2 parental
Description: (§1) FIG. 3. […] Apoptosis was determined by light microscopy.
(§2) FIG. 8. […] Cells were grown over a period of 6 days. Cells were harvested at various days (0, 2, 4 and 6 days), spun onto slides and stained. Apoptosis was determined by light microscopy. Percentage of apoptotic cells was calculated as the number of apoptotic cells out of the total cells counted times 100. At least 500 cells were counted for each sample.
(§3) Cells were grown over a period of 6 days. Cells were harvested at various days (0, 2, 4 and 6 days), spun onto slides and stained. Apoptosis was determined by light microscopy. Percentage of apoptotic cells was calculated as the number of apoptotic cells out of the total cells counted times 100.

Ki-ras clone #60 = assay: Induction of apoptosis (light microscopy) in Ki-ras clone 60; type: cell-based, human; details: 120 μM sulindac sulfide
Description: as §1, §2, §3

[9] = system: Caco-2 and clone 60 cells; assay: Clonogenic assay (colony-forming efficiency), Caco-2 and clone 60 cells; type: cell-based, human
[10] = system: Ki-ras transfected Caco-2 cells; assay: Induction of apoptosis in Ki-ras transfected versus parental Caco-2 cells; type: cell-based, human; details: 120 μM sulfide, 600 μM sulfone
Description: as §1

[11] = human, in vivo, po; cited from earlier work
rat enterocytes = details: cited from earlier work
Ki-ras clone #66 = assay: Induction of apoptosis (light microscopy) in Ki-ras clone 66; details: 120 μM sulindac sulfide; printed 'clone 6'

In the case of `CC1(C)S[C@@H]2[C@H](NC(=O)[C@H](N)c3ccc(O)cc3)C(=O)N2[C@H]1C(=O)O` [amoxicillin], the adverse effects [1] is given as “diarrhea and super-infections”.

In the case of `CC(=O)Oc1ccccc1C(=O)O` [aspirin], the “inhibition of colon carcinogenesis in AOM-treated rat model” value (“inhibition of colon carcinogenesis” for short) [2] is listed as “effectively inhibit colon carcinogenesis”, the “lowest dose decreasing PGF2α in colon mucosa” value ([3]; in vivo) is listed as 40 mg and the “threshold dose of effect on colon mucosa” value ([3]; in vivo) is listed as 81 mg and 80 mg. The “effect on colon mucosal prostaglandins” value ([3]; low doses, another group of investigators) was “no such effect on colon mucosal prostaglandins”, the “upper gastrointestinal mucosa prostaglandins” value ([3]; low doses) was “substantial reduction of prostaglandins; also recorded: substantial education of prostaglandins” and the “beneficial effect, three large cohort studies” value (colon cancer incidence; in vivo) was “conflicting reports on the beneficial effect”. For the same compound, the “weekly total dose with evident effect on colon cancer incidence” value (colon cancer incidence; weekly total dose) was at least 1000 mg and the “COX / prostaglandin synthesis inhibition” value (COX (cyclooxygenase)) was “inhibitor of cyclooxygenase”.

For `CC[C@H]1OC(=O)[C@H](C)[C@@H](O[C@H]2C[C@@](C)(OC)[C@@H](O)[C@H](C)O2)[C@H](C)[C@@H](O[C@@H]2O[C@H](C)C[C@H](N(C)C)[C@H]2O)[C@](C)(OC)C[C@@H](C)C(=O)[C@H](C)[C@@H](O)[C@]1(C)O` [clarithromycin], the diarrhea [1] is given as 10% and the pseudomembranous colitis [1] is given as 1%.

In the case of `CC(C)Cc1ccc(C(C)C(=O)O)cc1` (centres unmarked) [ibuprofen], the “inhibition of colon carcinogenesis” value [2] is given as “effectively inhibit colon carcinogenesis”, the “chemoprevention / inhibition of tumor development in animal models” value [4] is given as “less effective than other NSAIDs” and the “PGE2 levels in flat mucosa” value [5] is given as “significant decrease”.

For `COc1ccc2c(c1)c(CC(=O)O)c(C)n2C(=O)c1ccc(Cl)cc1` [indomethacin], the “inhibition of colon carcinogenesis” value [2] is given as “effectively inhibit colon carcinogenesis” and the “COX / prostaglandin synthesis inhibition” value (COX (cyclooxygenase)) is given as “prostaglandin synthase inhibitor”.

For `Cc1c(OCC(F)(F)F)ccnc1C[S+]([O-])c1nc2ccccc2[nH]1` (centres unmarked) [lansoprazole], the diarrhea [1] is listed as 8%, the headache [1] is listed as 5% and the nausea [1] is listed as 3%.

In the case of `Cc1ncc([N+](=O)[O-])n1CCO` [metronidazole], the “disulfiram-like reaction with alcohol ingestion” value [1] is given as 20% and the rash [1] is given as 5%.

In the case of `COc1ccc2[nH]c([S+]([O-])Cc3ncc(C)c(OC)c3C)nc2c1` (centres unmarked) [omeprazole], the dizziness [1] is listed as 2%.

For `CN1C(C(=O)Nc2ccccn2)=C(O)c2ccccc2S1(=O)=O` [piroxicam, 4-Hydroxy-2-methyl-N-2-pyridyl-2H1,2-benzothiazine-3-carboxamide 1,1-dioxide], the “Ki-ras mutation / tumors harboring an activated Ki-ras” value [6] is listed as “reduced Ki-ras mutation frequencies”, the “amount of biochemically active p21 ras in existing tumors” value [6] is listed as “reduced the amount of biochemically active p21 ras in existing tumors” and the “tumors harboring Ki-ras mutations” value ([6]; reduced from 90%) is listed as 25%. The “inhibition of colon carcinogenesis” value [2] was “effectively inhibit colon carcinogenesis”, the “chemoprevention / inhibition of tumor development in animal models” value [4] was “the most effective chemoprevention agent in animal models” and the side effects ([7]; IIb trial / meta-analysis) was “has more side effects than other NSAIDs”. For the same compound, the half-life ([7]; human, in vivo) was “long half-life” and the “most frequently reported side effects” value ([7]; human, in vivo) was “Gastrointestinal complaints”.

For `CSc1ccc(/C=C2/C(C)=C(CC(=O)O)c3cc(F)ccc32)cc1` [sulindac sulfide], the “Ki-ras selective toxicity / Ki-ras-specific effect on growth” value ([8]; 120 μM sulindac sulfide or 600 μM sulindac sulfone) was “nor did sulindac sulfide or sulfone exert a Ki-ras-specific effect on growth”, the “number of viable cells” value ([8]; 120 μM sulindac sulfide, 10-day growth) was “remained relatively unchanged throughout the 10-day growth period” and the “time of peak apoptosis” value (Caco-2 parental cells) was 8 days. For the same compound, the “time of peak apoptosis” value (Ki-ras clone #60) was 4 days, the “survival normalized to like DFMO-treated controls” value ([9]; 5 mM DFMO, increasing concentrations of sulindac sulfide) was “the survival rates of the DFMO-treated cells mirrored those of the non-DFMO-treated cells” and the IC50 ([9]; Homo sapiens, Caco-2, 24 h, read-out: 50% decrease in cell number) was about 225 µM. The “effect of Ki-ras activation on viability / colony-forming efficiency after sulindac metabolite” value ([9]; increasing concentrations, 24 h) was “did not reveal any differences in colony-forming efficiency between Ki-ras transfectants and parental Caco-2 cells”, the “onset of apoptosis in Ki-ras transfected cells compared with parental cells” value [10] was “accelerate the onset of apoptosis; also recorded: occurred several days earlier in Ki-ras transfected cells than in parental cells” and the mean half-life [11] was 16.4 h. For the same compound, the “resistance to apoptosis on Ki-ras activation” value (rat enterocytes) was “confers resistance to apoptosis” and the “time of peak apoptosis” value (Ki-ras clone #66) was 6 days.
